According to US12263202B2, “Method of treating melanocortin-4 receptor pathway-associated disorders” (CHARITÉ—UNIVERSITÄTSMEDIZIN BERLIN, priority 2015, dated 2025):
“Also recorded” adds a separate entry of the source.

Assays:
wild-type mice = assay: Food intake over four hours in wild-type mice; assay type: in vivo
Description: (§1) To determine this, wild-type and db/db mice were exposed to vehicle or varying concentrations of setmelanotide (0.0554 mpk; 0.137 mpk, 0.344 mpk, or 1.37 mpk), and their food intake was measured over four hours.

[1] = system: wild-type obese human patients; assay: Weight loss in wild-type obese human patients; assay type: in vivo; details: 0.01 mg/kg or 0.015 mg/kg twice daily (BID); after 2 or 4 weeks; placebo-subtracted
Description: The effect of MC4R agonist setmelanotide on wild-type obese human patients was assessed. The patients were treated with placebo or setmelanotide twice daily (BID) at 0.01 mg/kg or 0.015 mg/kg. There were 9 patients in each treatment group (6 with setmelanotide and 3 with placebo).
The amount of weight loss was determined after 2 weeks or after 4 weeks of treatment. […] The weight loss among the wild-type obese patients was about 0.6 to about 0.9 kg per week.

[2] = cited from earlier work
wildtype mice = assay: Food intake in wild type mice (comparison to Magel2-null); assay type: in vivo; details: 0.1 mg/kg i.p.
Description: (§2) Experiments were performed to determine the effect of a MC4R agonist, setmelanotide, on Magel2-null mice. Setmelanotide was evaluated in wild type and Magel2-null mice. Adult mice (N=6 per group) were acclimated to metabolic chambers, and food intake and energy expenditure (kcal/h) were measured over time. Mice were 8 weeks old. […] Vehicle and drug (setmelanotide) were administered intraperitoneally (i.p.) (n=6 for each treatment). A 0.1 mg/kg dose of setmelanotide was injected i.p. before the start of the dark cycle in the mice.
(§3) Food intake (cumulative in grams (g)) through 3 hours post dose and overnight cumulative food intake were assessed. Energy expenditure was also measured after dosing. Post-setmelanotide treatment data were compared to the data from post-vehicle injections in the same groups of mice. Statistical analysis was by two-way ANOVA followed by Bonferroni post-testing.

db/db mice = assay: Food intake over four hours in db/db mice (leptin receptor deficient); assay type: in vivo
Description: as §1

POMC deficient patient = assay: Phase 2 open label study of setmelanotide in an adult POMC deficient patient with severe obesity and hyperphagia; assay type: in vivo, human
Description: See, e.g., Chen et al. J. Clin. Endocrinol. Metab. 2015; 100:1639-45. The study was an investigator initiated, open label, phase 2, non-randomized proof of concept study (EudraCT No. 2014-002392-28; Clinical Trials Identifier No. NCT02507492) with three parts: pre-study evaluation, main study (about 13 weeks) and after a short interval off drug, a long-term extension phase.
In the pre-study period, baseline examinations were performed, including analysis of metabolic parameters, including OGTT, GnRH test, fasting blood glucose, Leptin measurements as well as bioelectrical impedance analysis (BIA, according standard protocols; Data-in, Nutriguard-MS), indirect calorimetry (CareFusion, VMAX® Encore system), heart rate and blood pressure monitoring (after the first injection and after each dosage escalation blood pressure was measured regularly over 12 hours; in addition, blood was measured at home 3 times daily) as well as a dermatological and psychological examination. All parameters were in the normal range with the exception of elevated fasting insulin reflecting insulin resistance. These measurements were repeated after 13 and 26 weeks of treatment. Baseline examination also included physical examination, e.g., measurement of height and body-weight. Setmelanotide treatment was started at a dose of 0.25 mg subcutaneously (s.c.) once daily. The dose escalated every 1-2 weeks after careful assessment of safety and weight loss. After the first injection and after each dosage escalation, blood pressure was measured regularly over 12 hours. In addition, blood was measured 3 times daily. Setmelanotide injections were given once a day.
After about 90 days of treatment (main study), assessments were repeated, including assessments of metabolic parameters, e.g., blood tests, skin examination, and psychological evaluation. Setmelanotide treatment was ended, and a rapid and large weight gain off-treatment was observed. Subsequently, setmelanotide treatment was continued for another 3 months (extension phase) along with continued assessments (of metabolic parameters). The hunger score was evaluated using a Likert hunger scale from 0 to 10 points (0=no hunger; 10=severe hunger). See, e.g., Sibilia. Psychologicol Topics 19 (2010), 2, 341-354.
Bioelectric Impedance Analysis (BIA) and indirect calorimetric analysis was performed according standard protocols, e.g., as described in Barak et al. JPEN J. Parenter. Enteral Nutr. 27.1(2003):43-6; and Compher et al. J. Am. Diet Assoc.
Statistical analysis: The values of systolic and diastolic blood pressure and heart rate were analyzed with a […].

Magel2-null mice = assay: Food intake and energy expenditure in Magel2-null mice (mouse model of PWS); assay type: in vivo
Description: as §2, §3

[3] = higher doses (0.137 mpk, 0.344 mpk, and 1.37 mpk), vs vehicle-treated mice
[4] = after 26 weeks of treatment, listed as MC4R agonist
[5] = after a 13-week treatment vs baseline
[6] = bioelectrical impedance analysis
[7] = off drug after 13 weeks of treatment (three weeks off drug)

## CC(=O)N[C@@H](CCCNC(=N)N)C(=O)N[C@H]1CSSC[C@@H](C(N)=O)NC(=O)[C@H](Cc2c[nH]c3ccccc23)NC(=O)[C@H](CCCNC(=N)N)NC(=O)[C@@H](Cc2ccccc2)NC(=O)[C@H](Cc2cnc[nH]2)NC(=O)[C@@H](C)NC1=O [setmelanotide, Ac-Arg-c(Cys-D-Ala-His-D-Phe-Arg-Trp-Cys)-NH2]
wild-type mice; 0.0544 mpk dose, 4 hour timepoint
  food intake vs vehicle treated mice: identical food intake
wild-type mice; 0.0544 mpk dose, at 1 and 2 hours
  food intake: Decreased food intake
wild-type mice; [3]
  food intake: significantly decreased food intake
[1]
  weight loss: 0.6-0.9 kg per week
[2]; clinical trials (Chen et al. 2015)
  effect on blood pressure: not been shown to adversely affect blood pressure
[2]; in vivo
  effects on sexual activity: only infrequent
  signs of increased blood pressure: little, if any
  tolerability: generally well-tolerated
Wildtype mice
  food intake: retained normal levels of food intake
db/db mice; 0.0544 mpk dose, end of the 4 hour time period
  suppression of food intake: about 80%
db/db mice; all concentrations
  suppression of food intake compared with wildtype mice: more profound suppression of foodintake than wildtype mice
db/db mice; [3]
  food intake: significantly decreased food intake
POMC deficient patient; 1 mg s.c. once daily, scale 0 to 10 (0=no hunger), baseline 9
  Likert hunger scale score: 5 points
POMC deficient patient; 1.5 mg dose, first treatment phase
  rate of weight loss: 2-3 kg per week
POMC deficient patient; after 26 weeks of treatment
  LDL: further reduced
  total cholesterol: further reduced
  total loss of body weight: 35.9 kg
  total loss of body weight, % of initial body weight: 23.2%
  triglycerides: further reduced
POMC deficient patient; [4]
  total loss of body weight: about 36 kg
  total loss of body weight, % of initial body weight: about 23%
POMC deficient patient; [5]
  HDL cholesterol: did not change
  LDL cholesterol: reduced
  total cholesterol: reduced
  triglycerides: did not change
POMC deficient patient; after the first 13 weeks of treatment
  total weight loss, % of initial body weight: 16.7%
POMC deficient patient; after the first 13 weeks of treatment, baseline 155 kg
  total weight loss: 25.8 kg
POMC deficient patient; after the first 13 weeks, baseline 49.8
  BMI: 41.5 kg/m2
POMC deficient patient; after the first 13 weeks, baseline 155 kg
  end body weight: 129.2 kg
POMC deficient patient; after the first 13 weeks, baseline +4.52
  BMI SDS: +3.86
POMC deficient patient; after the initiation of treatment
  quality of life: improved dramatically
POMC deficient patient; at 86 weeks of treatment
  loss of body weight: 60.5 kg
POMC deficient patient; [6]
  composition of the reduction of body weight: mainly due to a loss of body-fat mass
  lean body mass: not greatly altered
POMC deficient patient; despite severe weight loss
  resting energy expenditure (REE)/kg lean body mass: stayed relatively stable
POMC deficient patient; during all steps of dose escalation
  blood pressure: no increase
POMC deficient patient; during the study
  diastolic BP: significant decreases
  heart rate (HR): significant decreases
  systolic BP: significant decreases
POMC deficient patient; human, in vivo
  adverse event reported by the patient: infrequent dry mouth
  safety laboratories: no changes in safety laboratories of clinical concern
  tolerability of treatment: well tolerated
POMC deficient patient; initially, with low dosage
  changes in hunger: only little changes
  weight loss: moderate
POMC deficient patient; [7]
  Likert hunger score after treatment was stopped: 7 points
  weight regained after treatment was stopped: 4.8 kg
POMC deficient patient; oral glucose tolerance test, during the study
  blood glucose values (fasting and after glucose challenge): remained always in the normal range; also recorded: relatively stable
POMC deficient patient; overall, over the course of 26 weeks of treatment
  weight loss per week: 2-2.5 kg per week
POMC deficient patient; second treatment phase (1 mg for 4 weeks and 1.5 mg thereafter)
  rate of weight loss: 1-2 kg per week
POMC deficient patient; under setmelanotide treatment
  elevated insulin levels / insulin resistance (insulin sensitivity): improved significantly
POMC deficient patient; with loss of body-fat mass
  serum leptin concentrations: significant decrease
Magel2-null mice; 0.1 mg/kg i.p., 3 hours post-dosing, vs vehicle-dosed Magel2-null mice
  increase of energy expenditure: 11%
Magel2-null mice; 0.1 mg/kg i.p., over the first 3 hours, P<0.05
  decrease of spontaneous food intake: ~75%
Magel2-null mice; 0.1 mg/kg i.p., overnight
  food intake suppression, duration: persisted throughout the dark cycle
Magel2-null mice; 0.1 mg/kg, P<0.05
  cumulative food intake: statistically significant decrease
Magel2-null mice; 0.1 mg/kg, food intake
  sensitivity compared with wildtype mice: much more sensitive than wildtype mice
